Measurements published in patent US20220348572A1, “BRIDGED HETEROCYCLYL-SUBSTITUTED PYRIMIDINE COMPOUND, PREPARATION METHOD THEREFOR, AND PHARMACEUTICAL USE THEREOF” (The National Institutes of Pharmaceutical R&D Co., Ltd., priority 2019, published 2022).

Columns and labels:
JAK1 kinase = target: T1, JAK1 kinase (Homo sapiens, UniProt P23458); assay: In vitro inhibitory activity on JAK1 kinase (ADP-Glo Kinase Assay); assay type: biochemical; conditions: JAK1 kinase 4 nM, 1 mM ATP
T1 construct: purchased Invitrogen PV4744
Outline: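 JAK1 (4 nM final) preincubated with compound 15 min at 25° C., then substrate mix (1 mM ATP, IRS1 0.05 mg/ml) added for 60 min at 25° C. ADP-Glo luminescence read-out; top concentration 10 μM, 3-fold, 10 points, duplicates; IC50 reported in ranged classes.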

TYK2 kinase = target: T2, TYK2 kinase (Homo sapiens, UniProt P29597); assay: In vitro inhibitory activity on Tyk2 kinase (ADP-Glo Kinase Assay); assay type: biochemical; conditions: TYK2 kinase 4 nM, 1 mM ATP
T2 sequence (P29597 897-1187 limits assumed): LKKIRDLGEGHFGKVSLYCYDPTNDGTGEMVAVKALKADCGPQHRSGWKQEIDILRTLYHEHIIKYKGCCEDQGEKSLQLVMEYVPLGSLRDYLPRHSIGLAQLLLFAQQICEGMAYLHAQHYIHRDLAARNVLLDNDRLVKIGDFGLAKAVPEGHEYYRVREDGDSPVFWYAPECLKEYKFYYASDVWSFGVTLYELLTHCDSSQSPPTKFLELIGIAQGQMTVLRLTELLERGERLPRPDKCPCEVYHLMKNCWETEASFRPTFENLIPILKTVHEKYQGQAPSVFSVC
Protocol: Test Example 2: Determination of In Vitro Inhibitory Activity of the Compounds of the Present Invention on Tyk2 Kinase Experimental materials: TYK2 (Invitrogen, PV4790), ATP (Promega, V915B), ADP-Glo Kinase Assay (Promega, V9101), IRS1 (Signalchem, 140-58-1000). Sample preparation: The compounds of the present invention and the control product were dissolved in DMSO solvent respectively to formulate into 10 mM initial liquid. The maximum concentration of the compound was 10 μM, 3-fold dilution, 10 concentration gradients, and duplicate wells for each concentration gradient. Experimental process: 0.1 μL of the compound to be tested was transferred into a 384 reaction plate (PE, 6007290) via Echo and centrifuged at 1000 rpm/min for 1 min. 5 μL TYK2 kinase (final concentration of 4 nM) was transferred into the 384 reaction plate, which was then centrifuged at 1000 rpm/min for 1 min, and incubated at 25° C. for 15 min. 5 μL substrate mixture (1 mM ATP, IRS1 0.05 mg/ml, kinase buffer solution) was transferred into the 384 reaction plate, which was then centrifuged at 1000 rpm/min for 1 min, and incubated at 25° C. for 60 min. 10 μL ADP-Glo was transferred into the 384 reaction plate, which was then centrifuged at 1000 rpm/min for 1 min, and incubated at 25° C. for 40 min. 20 μL test solution was transferred into the 384 reaction plate, which was centrifuged at 1000 rpm/min for 1 min and incubated at 25° C. for 40 min. RLU (Relative luminescence unit) signal was read by using an Envision multifunctional plate reader. The signal intensity was used to characterize the degree of the kinase activity. […] IC50 value of 0-100 nM is shown as A, IC50 value of 100-300 nM is shown as B, IC50 value of 300-1000 nM is shown as C, and IC50 value which is greater than 1000 nM is shown as D. NT means not tested.

[1] = tested on: IFN-2α-stimulated TYK2/JAK1-mediated pathway (pSTAT3); assay: Inhibition of STAT3 signaling pathway of human whole blood (IFN-2α-induced pSTAT3, flow cytometry); assay type: cell-based
Protocol: Test Example 3: Inhibition Effect of the Compounds of the Present Invention on STAT3 Signaling Pathway of Human Whole Blood
Sample preparation: The compounds of the present invention and the control were dissolved in DMSO solvent respectively to formulate into 10 mM initial liquid. The maximum concentration of the compound was 10 μM, 3-fold dilution, 10 concentration gradients, and duplicate wells for each concentration gradient.
Experimental process: 20 μL of the compound of the present invention was added to a flow cytometer tube (BD, 352052) containing 180 μL anticoagulant sodium heparin. 20 μL PBS was added to the control. The sample was incubated at 37° C. for 30 min. 2 μL stimulating factor was added and then incubated at 37° C. for 20 min. 1 mL erythrocyte lysate was rapidly added, and the sample was repeatedly inverted 5-10 times or vortexed and then incubated at 37° C. for 10 min. The sample was centrifuged at 600 g for 6-8 min. The supernatant was discarded. The precipitate was vortexed until suspending. The cells were washed with 3 mL PBS and centrifuged at 600 g for 6-8 min. The supernatant was discarded. The precipitate was vortexed until suspending. 1 mL of membrane breaking solution was added, and the system was mixed gently, incubated on ice for 30 min, and centrifuged at 600 g for 6-8 min. The supernatant was discarded. The precipitate was vortexed until suspending. The cells were washed. 3 mL PBS was added. The system was centrifuged at 600 g for 6-8 min. The supernatant was discarded. The precipitate was vortexed untile suspending. The process was repeated twice. 100 μL PBS was added to each staining tube. IFN-2a was added for stimulation, and CD3 and pSTAT3 antibodies […] were added. The system was mixed well, protected from light and incubated at room temperature for 60 min. The cells were washed. 3 mL PBS was added. The system was centrifuged at 600 g for 6-8 min. The supernatant was discarded. The precipitate was vortexed until suspending. The precipitate was suspended in 150 μL in the dark for the flow cytometry analysis. The IC50 (half inhibitory concentration) of the compounds was obtained by using the following non-linear fitting equation:
Y=Bottom+(Top−Bottom)/(1+10^((Log IC50−X)*HillSlope));
X: Log value of the concentration of the compound;
Bottom: The minimum value, Top: The maximum value, HillSlope: Slope
The inhibition effect of by the compounds of the present invention on the IFN-2α-stimulated TYK2/JAK1-mediated pathway is shown in Table 3. IC50 value of 0-100 nM is shown as A, IC50 value of 100-300 nM is shown as B, IC50 value of 300-1000 nM is shown as C, IC50 value which is greater than 1000 nM is shown as D. NT means not tested.

[2] = Pharmacokinetic study in rats after oral administration; assay type: in vivo, SD rats
Protocol: Experimental Example 5: Pharmacokinetic Studies of the Compounds of Example 1, Example 1-a, Example 1-b and Example 3 in Rats In order to investigate the blood concentration and pharmacokinetic parameters of the compounds of the present invention after oral administration, the corresponding LC/MS/MS assay and plasma treatment methods were developed for the compounds of the Experimental Examples. […] Male SD rats were orally administered at a dose of 5 mg/kg. Blood was orbitally collected and anticoagulated with sodium heparin. The plasma was deproteinated with acetonitrile. The samples were analyzed by LC/MS/MS method. Wherein, AUC<1000 μg/L*h is shown as C, AUC between 1000-2000 μg/L*h is shown as B, AUC>2000 μg/L*h is shown as A; Cmax<600 μg/L is shown as C, Cmax between 600-900 μg/L is shown as B, and Cmax>900 μg/L is shown as A.

[3] = rat, male SD rats, oral 5 mg/kg, plasma

T1 sequence (P23458 866-1154 limits assumed): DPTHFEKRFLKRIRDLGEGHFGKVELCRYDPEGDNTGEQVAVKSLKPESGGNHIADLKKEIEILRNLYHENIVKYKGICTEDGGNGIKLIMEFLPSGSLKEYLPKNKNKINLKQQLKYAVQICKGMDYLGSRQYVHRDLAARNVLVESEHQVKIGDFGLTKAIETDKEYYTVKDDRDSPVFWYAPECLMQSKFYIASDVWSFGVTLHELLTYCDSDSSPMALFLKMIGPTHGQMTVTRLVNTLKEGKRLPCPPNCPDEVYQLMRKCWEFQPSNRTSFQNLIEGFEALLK

Question: For `Cn1cc(Nc2nccc(C3=C[C@@H]4CC[C@H](C3)N4C(=O)[C@@H]3CC3(F)F)n2)cn1` (single isomer, unassigned) [Compound 1-a], which IC50 (JAK1 kinase) is on record?
Answer: < 100 nM

Question: And the IC50 (TYK2 kinase)?
Answer: < 100 nM

Question: And the IC50 [1]?
Answer: < 100 nM

Question: And the “pharmacokinetic parameters (in words)” value ([2]; oral administration in SD rats)?
Answer: good pharmacokinetic parameters

Question: And the AUC(0-t) [2, 3]?
Answer: 1000 to 2000 ng·h/mL

Question: And the Cmax [2, 3]?
Answer: 600 to 900 ng/mL
